According to PubChem BioAssay (NCI):
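Growth conditions: 96-well plates. Treatment: test compound, 48 hours, 5 concentrations. Analysis: linear interpolation between bracketing concentrations; unreached endpoints set to highest concentration. Here, GI50 denotes the concentration required for 50% inhibition of growth. TGI: total growth inhibition.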

What was measured:
Assay in all cases: growth of human tumour cells (NCI), 48 h
UO-31 renal = test system: UO-31 renal
HOP-62 NSCLC = test system: HOP-62 NSCLC
NCI-H522 lung = test system: NCI-H522 lung
DMS 114 small cell lung = test system: DMS 114 small cell lung
DMS 273 small cell lung = test system: DMS 273 small cell lung
HL-60(TB) leukemia = test system: HL-60(TB) leukemia
XF 498 CNS = test system: XF 498 CNS
SF-268 CNS = test system: SF-268 CNS
DLD-1 colon = test system: DLD-1 colon
SK-MEL-5 melanoma = test system: SK-MEL-5 melanoma
KM20L2 colon = test system: KM20L2 colon
BT-549 breast = test system: BT-549 breast
SNB-78 CNS = test system: SNB-78 CNS

SMILES | TGI (UO-31 renal) | TGI (HOP-62 NSCLC) | TGI (NCI-H522 lung) | TGI (DMS 114 small cell lung) | TGI (DMS 273 small cell lung) | TGI (HL-60(TB) leukemia) | TGI (XF 498 CNS) | TGI (SF-268 CNS) | TGI (DLD-1 colon) | TGI (SK-MEL-5 melanoma) | TGI (KM20L2 colon) | TGI (BT-549 breast) | TGI (SNB-78 CNS) | GI50 (BT-549 breast)
O=c1[nH]c2c(nc1NC13CC4CC(CC(C4)C1)C3)c(=O)oc1ccccc12 | > 100 µM | > 100 µM | > 100 µM | > 100 µM | > 100 µM | > 100 µM | > 100 µM | > 100 µM | > 100 µM | > 100 µM | > 100 µM | – | – | –
Nc1ccc(-c2nc3cc(F)ccc3s2)cc1Cl | > 100 µM | 46.8 µM | > 100 µM | – | – | > 100 µM | – | > 100 µM | – | > 100 µM | – | > 63.2 µM | – | –
CC(=O)N(C)c1ccc(Nc2cc(C)[nH]c3ccc4ncnc4c23)cc1 | 56.3 µM | 23.5 µM | 21.6 µM | 20.4 µM | 24.3 µM | 18.9 µM | 5.92 µM | 38.7 µM | 74.2 µM | 17.7 µM | 37.2 µM | 24.5 µM | 53.6 µM | –
CC(C)(C)[Si](OC1CC(n2cnc3c(N)ncnc32)OC1CO)(c1ccccc1)c1ccccc1 (stereo not drawn) | 68.1 µM | 45.3 µM | 30 µM | 54.2 µM | 35.8 µM | > 100 µM | 51.3 µM | 35 µM | 30 µM | – | 29.5 µM | – | > 100 µM | –
Oc1cn(-c2ccc(Cl)cc2)nc1-c1nnc(-c2ccccc2)o1 | 31.9 µM | 4.64 µM | 22.9 µM | – | – | 17.7 µM | – | 17.9 µM | – | 5.13 µM | – | > 91.9 µM | – | 4.24 µM
CCN(CC)CC1CCCCCCCCCCC1=O (stereo not drawn) | > 100 µM | > 100 µM | > 100 µM | > 100 µM | > 100 µM | > 100 µM | > 100 µM | > 100 µM | > 100 µM | > 100 µM | > 100 µM | – | > 100 µM | –
CN(Cc1cnc2nc(N)nc(N)c2n1)c1ccc(C(=O)NC(CCC(=O)NCCC(P(=O)(O)O)P(=O)(O)O)C(=O)O)cc1 (stereo not drawn) | > 100 µM | > 100 µM | > 100 µM | – | – | > 100 µM | – | > 100 µM | – | > 100 µM | – | > 100 µM | – | –
Cc1cc(C)n2nc3nc(N)c(C#N)c(-c4ccccc4)c3c2n1 | > 100 µM | > 100 µM | > 100 µM | – | – | > 100 µM | – | > 100 µM | – | > 100 µM | – | > 100 µM | – | –
CCCCc1c(N(C)C)c(OC(C)=O)c(-c2cn(C)c3ccccc23)oc1=O | 53 µM | 55.7 µM | 49.5 µM | – | – | 51.1 µM | – | 88.9 µM | – | 26.8 µM | – | 72.2 µM | – | –
COc1cc2cc3c4c(cc(OC)c(OC)c4c2cc1OC)CCN3C(=O)OCCN1CCNCC1 | 28.1 µM | 31.5 µM | 30.6 µM | – | 26.5 µM | 30 µM | 29.4 µM | 23.3 µM | 29.1 µM | 28.2 µM | 24.9 µM | – | 31.4 µM | –
O=C1C(Cl)N(c2ccc(Cl)cc2)C1c1c[nH]c2ccccc12 (stereo not drawn) | 35 µM | 33.7 µM | 39 µM | 45.2 µM | – | 44.5 µM | 31.3 µM | > 100 µM | – | 31 µM | 38.3 µM | – | – | –
CCCCS(=O)CCC(N)P(=O)(O)O (stereo not drawn) | > 100 µM | > 100 µM | > 100 µM | – | – | > 100 µM | – | > 100 µM | – | > 100 µM | – | > 100 µM | – | –
COc1cccc2c1OC(c1ccc(Cl)cc1)C([N+](=O)[O-])=C2 (stereo not drawn) | 3.44 µM | 4.89 µM | 3.23 µM | – | – | > 100 µM | – | 13.9 µM | – | 2.95 µM | – | 3.38 µM | – | –
CC1=CC(C)C/C=C/C2C3OC3(C)C(C)C3C(Cc4c[nH]c5ccccc45)NC(=O)C23C(=O)C=CC(=O)C1O (stereo not drawn) | 6.05 µM | 26.7 µM | 8.03 µM | – | – | 5.55 µM | – | 40.7 µM | – | 24.4 µM | – | 10.3 µM | – | –
Cc1cc(N)c(C)c2c1[nH]c1ccc(O)cc12 | > 100 µM | > 100 µM | 41.1 µM | – | > 100 µM | > 100 µM | > 100 µM | > 100 µM | – | – | – | – | > 100 µM | –
CC(=O)O[C@H]1C[C@H]2[C@@H](OC(C)=O)/C=C3\C[C@](C)(C(=O)[C@H](O)C(=C1C)C2(C)C)[C@@H](O)C[C@@H]3OC(=O)[C@H](O)[C@H](c1ccccc1)N(C)C | > 100 µM | > 100 µM | > 100 µM | – | – | > 100 µM | – | > 100 µM | – | > 100 µM | – | > 100 µM | – | –
Cc1cc2c(cc1Cl)SC(NS(=O)(=O)c1ccc(Cl)cc1)=NS2(=O)=O | > 100 µM | > 100 µM | 84.2 µM | – | – | > 100 µM | – | > 100 µM | – | > 100 µM | – | > 100 µM | – | –
O=C1C2CC=CCC2C(=O)N1n1c(Cc2ccc(Cl)cc2)n[nH]c1=O (stereo not drawn) | > 100 µM | > 100 µM | > 100 µM | – | – | > 100 µM | – | > 100 µM | – | > 100 µM | – | > 100 µM | – | –
